According to patent publication US20260130933A1, “PHARMACEUTICAL COMPOSITION FOR PREVENTION OR TREATMENT OF NEPHROPATHY AND/OR DIABETES MELLITUS, COMPRISING ENAVOGLIFLOZIN” (DAEWOONG PHARMACEUTICAL CO., LTD., priority 2022, published 2026):

Experiment: Example 3: phase 3 trial, enavogliflozin 0.3 mg vs dapagliflozin 10 mg once a day for 24 weeks added to metformin and gemigliptin in patients with type 2 diabetes (same endpoints, rescue drug)
Format: in vivo, human
Method: 1) when Metformin (≥1,000 mg/Day) was Administered at a Constant Dose for at Least 8 Weeks Prior to Pre-Visit (Pre-Screening) • Metformin (≥1,000 mg/day) and gemigliptin (50 mg/day) were co-administered during the 8-week stabilization period. […] 4) when Metformin (≥1,000 mg/Day) and Gemigliptin (50 mg/Day) were Co-Administered at Constant Doses for at Least 8 Weeks Prior to Pre-Visit (Prescreening) • Without a separate stabilization period, Pre-visit (pre-screening) was Visit 1 (screening).
Subjects who met the inclusion/exclusion criteria continued to receive metformin and gemigliptin while receiving a placebo of the clinical trial drug in a single-blind (subject-blinded) state for a 2-week run-in period.
Here, the randomized subjects were stratified according to the administration therapy (co-administration with two or less agents (one or two agents) or three or more agents) of a conventional hypoglycemic agent (before washout of another hypoglycemic agent) within 24 weeks prior to obtaining written informed consent and by an HbA1c value (<8% or ≥8%) at Visit 1 (screening) measured in the central laboratory.
The randomized subjects were administered two tablets of the clinical trial drug corresponding to each administration group once a day, and then visited the institution at weeks 6, 12, 18, and 24 during the 24-week administration period to conduct efficacy and safety assessments. In addition, during the clinical trial period, they were instructed to exercise regularly and control their diet without changing their daily life patterns.
• 1) Change in HbA1c at week 24 after administration of clinical trial drug compared to Visit 2 (randomization)
• 1) Change in HbA1c at each time point of weeks 6, 12, and 18 after administration of clinical trial drug compared to Visit 2 (randomization) • 2) Change in FPG at each time point of weeks 6, 12, 18, and 24 after administration of clinical trial drug compared to Visit 2 (randomization) • 3) Proportion of subjects achieving HbA1c<7% at each time point of weeks 6, 12, 18, and 24 after administration of clinical trial drug • 4) Proportion of subjects achieving HbA1c<6.5% at each time point of weeks 6, 12, 18, and 24 after administration of clinical trial drug • 5) Proportion of subjects achieving therapeutic response (HbA1c change (HbA1c at Visit 2—HbA1c at each evaluation time point)>0.5% or HbA1c<7% at each evaluation time point compared to Visit 2 (randomization)) at each time point of weeks 6, 12, 18, and 24 after administration of clinical trial drug • 6) Proportion of subjects achieving therapeutic response (HbA1c change (HbA1c at Visit 2—HbA1c at each evaluation time point)>0.7% or HbA1c<7% at each evaluation time point compared to Visit 2 (randomization)) at each time point of weeks 6, 12, 18, and 24 after administration of clinical trial drug • 7) Proportion of subjects achieving therapeutic response (HbA1c change (HbA1c at Visit 2—HbA1c at each evaluation time point)>1% or HbA1c<7% at each evaluation time point compared to Visit 2 (randomization)) at each time point of weeks 6, 12, 18, and 24 after administration of clinical trial drug

[1] = week 12, per-protocol set, enavogliflozin 0.3 mg, dapagliflozin 10 mg
[2] = week 18, modified per-protocol set 1, enavogliflozin 0.3 mg vs dapagliflozin 10 mg
[3] = week 18, modified per-protocol set 1, enavogliflozin 0.3 mg, dapagliflozin 10 mg
[4] = week 18, modified per-protocol set 2

In the case of `OC[C@H]1O[C@@H](c2cc(Cc3ccc(C4CC4)cc3)c(Cl)c3c2CCO3)[C@H](O)[C@@H](O)[C@@H]1O` [Enavogliflozin, (2S,3R,4R,5S,6R)-2-(7-chloro-6 (4-cyclopropylbenzyl)-2,3-dihydrobenzofuran-4-yl)-6-(hydroxymethyl)tetrahydro-2H-pyran-3,4,5-triol], the “HbA1c, Median” value [1] was 6.83%, the “Subjects achieving HbA1c target of <6.5%, (%)” value [1] was 23.08% and the “Subjects achieving HbA1c target of <7%, %” value [1] was 67.52%. For the same compound, the “body weight, Median” value [1] was 65.80 kg, the “Subjects achieving therapeutic glycemic response 1, %” value (week 12, per-protocol set, response 1 = HbA1c change >0.5% or HbA1c <7%, enavogliflozin 0.3 mg, dapagliflozin 10 mg) was 89.74% and the “Subjects achieving therapeutic glycemic response 2, %” value (week 12, per-protocol set, response 2 = HbA1c change >0.7% or HbA1c <7%, enavogliflozin 0.3 mg, dapagliflozin 10 mg) was 85.47%. For the same compound, the “Subjects achieving therapeutic glycemic response 3, %” value (week 12, per-protocol set, response 3 = HbA1c change >1% or HbA1c <7%, enavogliflozin 0.3 mg, dapagliflozin 10 mg) was 78.63%, the “FPG change from baseline, LS mean (SE)” value (week 18) was −27.77(1.63) mg/dL and the “HDL-C change from baseline, LS mean (SE)” value (week 18) was 3.82(0.64) mg/dL. The “HOMA-IR change from baseline, LS mean (SE)” value (week 18) was −1.14(0.11), the “HOMA-β change from baseline, LS mean (SE)” value (week 18) was 5.97(2.27) and the “HbA1c change from baseline, LS mean (SE)” value (week 18) was −0.83(0.05) % p. For the same compound, the “LDL-C change from baseline, LS mean (SE)” value (week 18) was 0.29(1.63) mg/dL, the “Subjects achieving therapeutic response (HbA1c change >0.5% or HbA1c<7%)” value (week 18) was 82.91% and the “UACR change from baseline, LS mean (SE)” value (week 18) was −11.08(3.89) g/kg. The “UGCR change from baseline, LS mean (SE)” value (week 18) was 58.74(2.33) mg/mg, the “adiponectin change from baseline, LS mean (SE)” value (week 18) was 0.78(0.33) μg/mL and the “body weight change from baseline, LS mean (SE)” value (week 18) was −3.16(0.24) kg. For the same compound, the “diastolic blood pressure change from baseline, LS mean (SE)” value (week 18) was −3.41(0.71) mmHg, the “fasting C-peptide change from baseline, LS mean (SE)” value (week 18) was −0.08(0.02) ng/mL and the “leptin change from baseline, LS mean (SE)” value (week 18) was −1.46(0.52) ng/ml. For the same compound, the “systolic blood pressure change from baseline, LS mean (SE)” value (week 18) was −6.82(0.92) mmHg, the “total cholesterol change from baseline, LS mean (SE)” value (week 18) was 4.27(1.94) mg/dL and the “triglyceride change from baseline, LS mean (SE)” value (week 18) was −11.64(4.46) mg/dL. The “FPG change from baseline, LS mean difference” value (week 18, vs dapagliflozin) was -4.22 mg/dL, the “HDL-C change from baseline, LS mean difference” value (week 18, vs dapagliflozin) was 0.40 mg/dL and the “HOMA-IR change from baseline, LS mean difference” value (week 18, vs dapagliflozin) was −0.13. For the same compound, the “HOMA-β change from baseline, LS mean difference” value (week 18, vs dapagliflozin) was 1.48, the “HbA1c change from baseline, LS mean difference” value (week 18, vs dapagliflozin) was −0.07 % p and the “LDL-C change from baseline, LS mean difference” value (week 18, vs dapagliflozin) was -1.10 mg/dL. The “Odds ratio for achieving HbA1c<6.5%” value (week 18, vs dapagliflozin) was 1.20, the “Odds ratio for achieving HbA1c<7%” value (week 18, vs dapagliflozin) was 1.36 and the “Odds ratio, therapeutic response (HbA1c change >0.5% or HbA1c<7%)” value (week 18, vs dapagliflozin) was 1.02. The “Odds ratio, therapeutic response (HbA1c change >0.7% or HbA1c<7%)” value (week 18, vs dapagliflozin) was 1.09, the “Odds ratio, therapeutic response (HbA1c change >1% or HbA1c<7%)” value (week 18, vs dapagliflozin) was 1.22 and the “UACR change from baseline, LS mean difference” value (week 18, vs dapagliflozin) was -2.18 g/kg. For the same compound, the “UGCR change from baseline, LS mean difference” value (week 18, vs dapagliflozin) was 13.34 mg/mg, the “adiponectin change from baseline, LS mean difference” value (week 18, vs dapagliflozin) was 0.42 µg/mL and the “body weight change from baseline, LS mean difference” value (week 18, vs dapagliflozin) was -0.15 kg. For the same compound, the “diastolic blood pressure change from baseline, LS mean difference” value (week 18, vs dapagliflozin) was −0.99 mmHg, the “fasting C-peptide change from baseline, LS mean difference” value (week 18, vs dapagliflozin) was -0.02 ng/mL and the “leptin change from baseline, LS mean difference” value (week 18, vs dapagliflozin) was -0.40 ng/mL. For the same compound, the “systolic blood pressure change from baseline, LS mean difference” value (week 18, vs dapagliflozin) was −1.66 mmHg, the “total cholesterol change from baseline, LS mean difference” value (week 18, vs dapagliflozin) was 0.61 mg/dL and the “triglyceride change from baseline, LS mean difference” value (week 18, vs dapagliflozin) was 0.75 mg/dL. For the same compound, the “Change from baseline in HDL-C, ANCOVA LS mean difference” value [2] was 0.40 mg/dL, the “Change from baseline in LDL-C, ANCOVA LS mean difference” value [2] was -1.10 mg/dL and the “Change from baseline in total cholesterol, ANCOVA LS mean difference” value [2] was 0.61 mg/dL. For the same compound, the “Change from baseline in triglycerides, ANCOVA LS mean difference” value [2] was 0.75 mg/dL, the “Change from baseline in HDL-C, ANCOVA LS mean” value [3] was 3.82 mg/dL and the “Change from baseline in HDL-C, Mean” value [3] was 4.09 mg/dL. The “Change from baseline in HDL-C, Median” value [3] was 3.00 mg/dL, the “Change from baseline in LDL-C, ANCOVA LS mean” value [3] was 0.29 mg/dL and the “Change from baseline in LDL-C, Mean” value [3] was 0.94 mg/dL. For the same compound, the “Change from baseline in LDL-C, Median” value [3] was 0.00 mg/dL, the “Change from baseline in total cholesterol, ANCOVA LS mean” value [3] was 4.27 mg/dL and the “Change from baseline in total cholesterol, Mean” value [3] was 5.06 mg/dL. The “Change from baseline in total cholesterol, Median” value [3] was 3.00 mg/dL, the “Change from baseline in triglycerides, ANCOVA LS mean” value [3] was -11.64 mg/dL and the “Change from baseline in triglycerides, Mean” value [3] was -9.60 mg/dL. For the same compound, the “Change from baseline in triglycerides, Median” value [3] was -2.00 mg/dL, the “Fasting HDL-C, Mean” value [3] was 50.17 mg/dL and the “Fasting HDL-C, Median” value [3] was 49.50 mg/dL. The “Fasting LDL-C, Mean” value [3] was 72.10 mg/dL, the “Fasting LDL-C, Median” value [3] was 68.00 mg/dL and the “Fasting total cholesterol, Mean” value [3] was 139.38 mg/dL. For the same compound, the “Fasting triglycerides, Mean” value [3] was 109.52 mg/dL, the “Fasting triglycerides, Median” value [3] was 95.50 mg/dL and the “fasting Total cholesterol, Median” value [3] was 134.00 mg/dL. The “Change from baseline in diastolic blood pressure, ANCOVA LS mean” value [4] was −3.41 mmHg, the “Change from baseline in diastolic blood pressure, LS mean difference (enavogliflozin − dapagliflozin)” value [4] was −0.99 mmHg and the “Change from baseline in diastolic blood pressure, Mean” value [4] was −4.03 mmHg.
